Measurements from patent US6610676B1, “Nitrate esters of corticoid compounds and pharmaceutical applications thereof” (Nicox S.A., priority 1996, dated 2003).
Marks after values point to notes of the source that are not given here.

Assays:
Male Wistar rats = assay: Angiostatic activity, rat sponge model, 133Xe clearance; type: in vivo; conditions: for SPLEEN weight / THYMUS weight: 10 mg/kg s.c. day 1 to 13, day 14; for 133Xe clearance (%): 10 mg/kg s.c. day 1 to 13, measured at day 14, clearance for 6 minutes as % of initial value
[1] = tested on: male rats of Lewis strain; assay: Antiarthritic activity, adjuvant arthritis induced by Mycobacterium butyricum; type: in vivo; conditions: day 21, inhibition of arthritis score vs vehicle group
mice of the Swiss strain = assay: Acute toxicity study, single oral dose; type: in vivo; conditions: single oral dose 50 mg/kg, 10 Swiss mice, 14 days observation
From the text: The acute toxicity of the product from Example 1A was roughly evaluated by orally administering a single dose of substance to a group of 10 mice of the Swiss strain.
Death incidence and appearance of toxic symptoms were observed during a period of 14 days after the compound administration.

Male Sprague-Dawley rats = assay: Gastric tolerability (safety); type: in vivo; conditions: 24 h, lesion scale 0 = absent to 4 = severe and numerous ulcers
Method: Male Sprague-Dawley rats fasted for 24 hours were treated with 5 to 10 mg/kg of intraperitoneal hydrocortisone or HCN.
Twenty-four hours later the animals were sacrified, the stomach was removed and tissue was grossly examined for the presence of lesions as described by Del Soldato et al.: “The influence of fasting and cimetidine on the relationship between ulcerogenic and anti-inflammatory properties of […]”, Br.J.Pharmacol. 67, 33-37, 1979. The degree of severity of the disease was evaluated according to common methods and expressed as arbitrary values.

[2] = tested on: parietal bone from rat foetus; assay: Bone toxicity, bone tissue grown in vitro; type: cell-based; conditions: 10 nmol (table), 96 h incubation, compared to initial value
Method: Bone tissues (parietal bone from rat foetus) grown in vitro according to the method described by Doherty et al. (“The effect of glucocorticoids on osteoblast function. The effect of corticosterone on osteoblast, expression of beta-I integrins”, Journal of Bone and Joint Surgery, Series A77/3, 396-404, 1995) was used. […]
Ninety six hours later calcium content and bone dry weight were measured.

nitroxysynthetase = assay: LPS-induced nitroxysynthetase activity in rat neutrophils and stomach; type: in vivo, rats; conditions: 10 mg/kg i.p., LPS 5 mg/kg i.v., 4 h; compared to vehicle group (vehicle = 100)
[3] = tested on: conscious Long Evans rats; assay: Cardiovascular parameters in conscious rats; type: in vivo; conditions: 10 mg/kg s.c., 4 h after treatment; for BLOOD PRESSURE: compared to vehicle group (101 ± 2 mm Hg); for HEART RATE (%): compared to vehicle group (324 ± 7 beats per minute)
Method: The effect of the test products on some cardiovascular parameters was studied in conscious Long Evans rats (350 to 450 g) which were appropriately monitored, as described by Gardiner et al.: “Influence of dexamethasone on the regional haemodynamic responses to lipopolysaccharide in conscious rats: effect of the non-selective endothelin antagonist: SB 209670”, Br.J. Pharmacology 117, 49P, 1996. The animals were treated with the vehicle (physiologic saline solution, 0,9% sodium chloride, s.c.) subcutaneous hydrocortisone or HCN (10 mg/kg). Heart rate and blood pressure were recorded 4 hours after treatment.

| SMILES | SPLEEN weight (Male Wistar rats) | THYMUS weight (Male Wistar rats) | 133Xe clearance (%) (Male Wistar rats) | ANTIARTHRITIC ACTIVITY (%) ([1]; 5 mg/kg i.p.) | ANTIARTHRITIC ACTIVITY (%) ([1]; 10 mg/kg i.p.) | Acute toxicity (death incidence and toxic symptoms) (mice of the Swiss strain) | GASTRIC TOLERABILITY (Male Sprague-Dawley rats; 5 mg/kg i.p.) | GASTRIC TOLERABILITY (Male Sprague-Dawley rats; 10 mg/kg i.p.) | Calcium Δ% [2] | DRY TISSUE WEIGHT Δ% [2] | NITROXYSYNTHETASE ACTIVITY (nitroxysynthetase) | BLOOD PRESSURE [3] | HEART RATE (%) [3] |
| --- | --- | --- | --- | --- | --- | --- | --- | --- | --- | --- | --- | --- | --- |
| C[C@]12CCC(=O)C=C1CC[C@@H]1[C@@H]2[C@@H](O)C[C@@]2(C)[C@H]1CC[C@]2(O)C(=O)COC(=O)CCCO[N+](=O)[O-] [HCN, Hydrocortisone 4-Nitroxybutanoate] | 673 ± 38 mg | 297 ± 31 mg | 22* % | 45% | 62% | no sign of apparent toxicity | 0.5* arbitrary values | 1.2* arbitrary values | 287% | 149% | 62* per cent | 103 per-cent | 98% |
| C[C@]12CCC(=O)C=C1CC[C@@H]1[C@@H]2[C@@H](O)C[C@@]2(C)[C@H]1CC[C@]2(O)C(=O)CO [HYDROCORTISONE, hydrocortisone, reference compound] | 642 ± 32 mg | 185 ± 17 mg | 33% | 40% | 55% |  | 2.0 arbitrary values | 3.5 arbitrary values | 70° % | 95° % | 55* per cent | 115* per-cent | 89* % |
